In patent US20140107166A1, “HISTONE DEACETYLASE INHIBITORS AND METHODS OF USE THEREOF” (DANA-FARBER CANCER INSTITUTE, INC., priority 2011, published 2014):

Tested on: HDACs
Experiment: HDAC deacetylase inhibition assay (trypsin-coupled fluorescent substrate)
Format: biochemical
Method: Selected compounds of the invention were tested for activity against a number of HDACs. The assays were performed substantially as described in PCT Patent Application WO/2008/091349. In brief, a target substrate is incubated with an HDAC or other protein with deacetylase activity in the presence of a test compound. In certain embodiments, the target substrate includes an acetylated lysine residue. Deacetylation of the substrate allows trypsin or another protease to cleave the substrate, thereby releasing a fluorescent probe. Fluorescence can be continuously monitored in order to determine the ability of the test compound to inhibit the deacetylation activity. The HDAC or other enzyme may be purified or used crude in the inventive assay. In certain embodiments, the assay is a cell-free assay.

## CCCCOc1ccc(CC(=O)NO)cc1 [bufexamac]
  inhibition of HDAC (result in words): inhibitor of HDAC
